# Experiments:
# [1] = Pharmacokinetic interaction between gemfibrozil and LipoCol Forte; format: in vivo, human; details: for CL/F: mean ± SD, n = 13
# Description: The volunteers were fasted overnight before dosing and a high fat breakfast or dinner was served 0.5 h after administration of gemfibrozil. […] Blood samples were prepared as described in the previous section (dose-escalation study).
# [2] = Single dose escalation and multiple dosing pharmacokinetic study of LipoCol Forte; details: for AUC0–12/dose / AUC0–inf/dose / CL/F / Cmax/dose / AUC(0-t) / AUC(0-inf) / Cmax / MRT / half-life / Tmax / Vd/F: fed, mean ± SD, n = 14; for AUC(0-t) / AUC(0-inf) / Cmax / MRT / half-life / Tmax / Vd/F: human, plasma, oral; for AUC(0-t): AUC0–12, healthy subjects; for AUC(0-inf): AUC0–inf; for half-life: T1/2, healthy subjects
# Description: A high fat breakfast (including two eggs fried in butter, two strips of bacon, two slices of toast with butter, four ounces of hash brown potatoes, and eight ounces of whole milk) was provided 30 min before dosing. All doses were administered with 240 mL of water. […] A high fat breakfast or dinner was served 30 min before dosing. One capsule was administered with 240 mL of water. […] Within 30 min of collection, the samples were centrifuged at 2,600 g for 10 minutes at 4°C and the plasma transferred to labeled polypropylene tubes containing 50 μL of 17% phosphoric acid and stored at −80°C until analysis.
# The pharmacokinetics were characterized, when appropriate, by the peak concentration in the plasma (C max⁡), time to reach the peak concentration (T max⁡), area under the plasma concentration versus time curve from time zero to the time of the last quantifiable concentration (AUC0−t), AUC from time zero to the time extrapolated to infinity (AUC0−inf⁡), half-life (T 1/2), mean residence time (MRT), apparent clearance (CL/F), and apparent volume of distribution (V d/F).
# P-gp = P-gp (Homo sapiens, UniProt P08183); format: cell-based; details: MDCK-MDR1 cells, 25 μM (extracts adjusted to 25 μM lovastatin)
# Description: MDCK-MDR1 cells (2.5 × 10^4 cells/cm^2) (from The Netherlands Cancer Institute) were cultured in polystyrene Nunclon multidishes under an atmosphere of 5% CO2/95% air. The minimal essential medium (MEM) (Invitrogen, CA, USA) contained 10% fetal bovine serum (Hyclone, UT, USA), 5.5 mM L-glutamine, 1.5 mg/mL of sodium bicarbonate, and 1 mM sodium pyruvate (all from Sigma, MO, USA), and 100 unit/mL of penicillin and 0.1 mg/mL of streptomycin (both from Invitrogen). […] The percentage of inhibition of P-gp activity and the IC50 values for P-gp inhibition were determined by the methods described by Rautio et al..
# [3] = human, plasma, oral, 1 LipoCol Forte capsule
# [4] = healthy subjects, multiple doses one LipoCol Forte capsule BID for 5 days
# [5] = healthy subjects, single dose four LipoCol Forte capsules
# [6] = healthy subjects, single dose one LipoCol Forte capsule
# [7] = healthy subjects, single dose two LipoCol Forte capsules
# [8] = 1 LipoCol Forte capsule, multiple doses one LipoCol Forte capsule BID for 5 days
# [9] = 1 LipoCol Forte capsule, single dose one LipoCol Forte capsule
# [10] = 1 LipoCol Forte capsule, healthy subjects, multiple doses one LipoCol Forte capsule BID for 5 days
# [11] = 1 LipoCol Forte capsule, healthy subjects, single dose one LipoCol Forte capsule
# [12] = 2 LipoCol Forte capsules, single dose two LipoCol Forte capsules
# [13] = 2 LipoCol Forte capsules, healthy subjects, single dose two LipoCol Forte capsules
# [14] = 4 LipoCol Forte capsules, single dose four LipoCol Forte capsules
# [15] = 4 LipoCol Forte capsules, healthy subjects, single dose four LipoCol Forte capsules
# P-gp, sequence (P08183 whole entry): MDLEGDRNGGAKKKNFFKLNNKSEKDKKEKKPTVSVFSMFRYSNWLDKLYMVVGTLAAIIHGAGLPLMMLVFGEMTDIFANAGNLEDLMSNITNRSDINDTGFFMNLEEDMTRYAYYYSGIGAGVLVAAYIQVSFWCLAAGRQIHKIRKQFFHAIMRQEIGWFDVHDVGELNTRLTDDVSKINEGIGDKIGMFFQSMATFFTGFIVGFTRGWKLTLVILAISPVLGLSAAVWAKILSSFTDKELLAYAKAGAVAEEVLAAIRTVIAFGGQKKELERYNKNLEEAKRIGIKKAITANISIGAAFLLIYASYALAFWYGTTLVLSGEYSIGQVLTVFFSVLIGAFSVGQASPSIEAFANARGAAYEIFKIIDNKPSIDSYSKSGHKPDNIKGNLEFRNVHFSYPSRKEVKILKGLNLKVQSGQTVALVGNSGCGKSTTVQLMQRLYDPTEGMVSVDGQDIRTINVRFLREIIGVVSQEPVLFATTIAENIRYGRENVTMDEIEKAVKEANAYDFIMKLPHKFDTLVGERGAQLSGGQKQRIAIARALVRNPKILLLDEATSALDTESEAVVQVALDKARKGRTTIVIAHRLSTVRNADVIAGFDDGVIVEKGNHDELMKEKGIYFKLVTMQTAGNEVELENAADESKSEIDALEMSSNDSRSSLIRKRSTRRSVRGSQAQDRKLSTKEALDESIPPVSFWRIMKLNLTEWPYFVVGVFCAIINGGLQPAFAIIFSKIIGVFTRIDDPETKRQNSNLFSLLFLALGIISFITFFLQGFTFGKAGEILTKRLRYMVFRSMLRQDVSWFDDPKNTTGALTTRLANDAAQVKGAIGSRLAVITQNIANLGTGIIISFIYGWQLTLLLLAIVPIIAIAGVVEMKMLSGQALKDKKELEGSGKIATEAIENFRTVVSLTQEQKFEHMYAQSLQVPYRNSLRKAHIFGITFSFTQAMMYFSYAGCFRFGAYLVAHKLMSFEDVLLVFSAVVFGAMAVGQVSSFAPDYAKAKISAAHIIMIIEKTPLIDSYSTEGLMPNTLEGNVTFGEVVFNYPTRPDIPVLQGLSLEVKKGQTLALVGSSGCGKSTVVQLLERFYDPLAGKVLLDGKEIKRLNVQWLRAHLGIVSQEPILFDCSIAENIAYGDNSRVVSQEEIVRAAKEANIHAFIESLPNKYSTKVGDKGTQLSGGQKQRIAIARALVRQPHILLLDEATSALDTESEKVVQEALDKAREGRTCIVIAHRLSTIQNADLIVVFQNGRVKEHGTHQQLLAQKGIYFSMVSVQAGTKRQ
smiles,measurement,setting,value
"CC[C@H](C)C(=O)O[C@H]1C[C@@H](C)C=C2C=C[C@H](C)[C@H](CC[C@@H](O)C[C@@H](O)CC(=O)O)[C@H]21 [Lovastatin acid, lovastatin acid]","Effect of concomitant gemfibrozil on pharmacokinetic parameters (AUC, Cmax)","[1]; healthy subjects, one LipoCol Forte capsule, gemfibrozil 600 mg twice daily",significantly increased
same,CL/F,"[1]; healthy subjects, single dose one LipoCol Forte capsule alone",218.4 ± 108.6 L/h
same,CL/F,"[1]; healthy subjects, single dose one LipoCol Forte capsule with coadministration of 600 mg gemfibrozil twice daily",99.9 ± 48.4 L/h
same,AUC(0-inf),[1]; [3],33.1 ± 18.2 ng·h/mL
same,Cmax,[1]; [3],6.79 ± 3.78 ng/mL
same,MRT,[1]; [3],6.19 ± 1.38 h
same,Vd/F,[1]; [3],644 ± 586 L
same,half-life,[1]; [3],1.94 ± 0.75 h
same,AUC(0-t),"[1]; human, plasma, oral, 1 LipoCol Forte capsule, read-out: AUC0–12",31.1 ± 16.5 ng·h/mL
same,Tmax,"[1]; human, plasma, oral, 1 LipoCol Forte capsule, read-out: Tmax",4.85 ± 1.14 h
same,AUC0–12/dose,[2]; [4],5.69 ± 1.70
same,AUC0–inf/dose,[2]; [4],5.92 ± 1.70
same,CL/F,[2]; [4],192.3 ± 63.7 L/h
same,Cmax/dose,[2]; [4],1.41 ± 0.57
same,AUC0–12/dose,[2]; [5],6.94 ± 2.64
same,AUC0–inf/dose,[2]; [5],7.42 ± 2.76
same,CL/F,[2]; [5],150.2 ± 45.9 L/h
same,Cmax/dose,[2]; [5],1.59 ± 0.75
same,AUC0–12/dose,[2]; [6],5.75 ± 2.30
same,AUC0–inf/dose,[2]; [6],6.72 ± 2.85
same,CL/F,[2]; [6],172.9 ± 68.1 L/h
same,Cmax/dose,[2]; [6],1.37 ± 0.72
same,AUC0–12/dose,[2]; [7],6.94 ± 2.42
same,AUC0–inf/dose,[2]; [7],7.50 ± 2.44
same,CL/F,[2]; [7],145.7 ± 43.1 L/h
same,Cmax/dose,[2]; [7],1.56 ± 0.81
same,Accumulation with multiple dosing,"[2]; healthy subjects, one LipoCol Forte capsule twice daily for 5 days",no accumulation
same,"Dose linearity of pharmacokinetic properties (AUC, Cmax)","[2]; healthy subjects, single dose of 1, 2 or 4 LipoCol Forte capsules",linear
same,AUC(0-t),[2]; [8],32.4 ± 9.7 ng·h/mL
same,AUC(0-t),[2]; [9],33 ± 13.1 ng·h/mL
same,AUC(0-inf),[2]; [10],33.7 ± 9.7 ng·h/mL
same,AUC(0-inf),[2]; [11],38.3 ± 16.2 ng·h/mL
same,Cmax,[2]; [10],8.04 ± 3.24 ng/mL
same,Cmax,[2]; [11],7.78 ± 4.12 ng/mL
same,MRT,[2]; [10],5.59 ± 1.15 h
same,MRT,[2]; [11],7.15 ± 3.3 h
same,half-life,[2]; [8],1.92 ± 0.34 h
same,half-life,[2]; [9],2.57 ± 1.74 h
same,Tmax,[2]; [10],4.36 ± 0.93 h
same,Tmax,[2]; [11],5.07 ± 1.59 h
same,Vd/F,[2]; [10],544 ± 241 L
same,Vd/F,[2]; [11],603 ± 337 L
same,AUC(0-t),[2]; [12],79.1 ± 27.6 ng·h/mL
same,AUC(0-inf),[2]; [13],85.4 ± 27.8 ng·h/mL
same,Cmax,[2]; [13],17.8 ± 9.21 ng/mL
same,MRT,[2]; [13],6.43 ± 1.77 h
same,half-life,[2]; [12],2.07 ± 0.68 h
same,Tmax,[2]; [13],5.14 ± 1.7 h
same,Vd/F,[2]; [13],438 ± 189 L
same,AUC(0-t),[2]; [14],158 ± 60.2 ng·h/mL
same,AUC(0-inf),[2]; [15],169 ± 62.9 ng·h/mL
same,Cmax,[2]; [15],36.2 ± 17.1 ng/mL
same,MRT,[2]; [15],6.39 ± 1.43 h
same,half-life,[2]; [14],2.04 ± 0.68 h
same,Tmax,[2]; [15],5 ± 1.52 h
same,Vd/F,[2]; [15],456 ± 265 L
C/C=C/C[C@@H](C)C(=O)[C@H]1C(=O)N[C@@H](C(C)C)C(=O)N(C)CC(=O)N(C)[C@@H](CC(C)C)C(=O)N[C@@H](C(C)C)C(=O)N(C)[C@@H](CC(C)C)C(=O)N[C@@H](C)C(=O)N[C@H](C)C(=O)N(C)[C@@H](CC(C)C)C(=O)N(C)[C@@H](CC(C)C)C(=O)N(C)[C@@H](C(C)C)C(=O)N1C [PSC833],Inhibition of P-gp activity (digoxin uptake),P-gp,highest inhibition

# Source: paper PMC3513969 (Evidence-based Complementary and Alternative Medicine : eCAM, 2012)
